Where two headings read alike, the source gives them in different places.
How the values were obtained:
Assay type in all cases: cell-based, human
[1] = test system: HCT 116 p53+/+ spheroids; test: 3D spheroid cell viability assay; settings: 3D spheroids, CellTiter-Glo 3D, 72-h treatment, read-out: IC50 HCT 116 p53+/+ (3D model)
Method: The HCT 116 cell lines, AsPC-1, PANC-1 (5,000), and U-251 cells (8,000) in 100 µL of medium were seeded in 96-well ULA Corning spheroid microplates (Sigma-Aldrich) and incubated for 72 h at 37 °C to form spheroids. The medium from each well was then gently removed and freshly prepared solutions of 13 were added. The treated spheroids were incubated for the next 72-h. Afterward, cell viability assays were performed using CellTiter-Glo 3D Reagent (Promega) according to the manufacturer’s protocol. Briefly, CellTiter-Glo 3D Reagent was added in equal volume to the medium in each well. The plate was vigorously mixed for 5 min and then incubated for 25 min at room temperature. The luminescence was measured using a multiplate reader (Synergy 4, BioTek). The experiment for each sample was performed at least three times. The results from the assay are presented as IC50 values, which were calculated using GraphPad Prism v.8.0 (USA).
To confirm the cytotoxicity ranking, the viability of the cells was also estimated on a 3D spheroid model, which better represented a solid tumour. […] The cell lines that represented pancreatic cancer were less responsive to derivative 13, which was similar to the 2D model. […]

[2] = test system: HCT 116 p53+/+; test: Cell cycle assay (flow cytometry); settings: 2xIC50, 24-h treatment; control 30.81%
Method: (§1) The cells were seeded in 35 mm Petri dishes, 200,000 cells per dish, and incubated overnight under standard conditions at 37 °C. […] After a 24-h incubation, the experiment was carried out using a Muse™ Cell Cycle Kit (Millipore) according to the available procedure. Briefly, the cells were detached and collected in Eppendorf tubes. The samples were then washed with cold phosphate-buffered saline (PBS), centrifuged at 300 g (5 min), and fixed in ice-cold 70% ethanol. The cells were stored at -20 °C overnight. The next day, the samples were sequentially washed with cold PBS, centrifuged resuspended in 200 µL of Muse™ Cell Cycle Reagent, and incubated in the dark for 30 min at room temperature. The percentage of cells in specified cell cycle phases was estimated using a Muse™ Cell Analyzer (Millipore). The experiments were carried out three times.
(§2) When analysing the antiproliferative activity of the tested compounds, we decided to determine the molecular mechanism of action of the most promising derivative 13 in three cell lines with different statuses of p53, for which the derivative has the highest activity. In order to achieve this goal, we started by studying the changes in the cell cycle in order to determine why proliferation stops. To evaluate the effect of derivative 13 on the cell cycle progression, we used flow cytometry. After a 24-h treatment, we observed a significant inhibition in the G2/M phase in both HCT 116 cell lines (Fig. 4A).

[3] = test system: HCT 116 p53-/-; test: Cell cycle assay (flow cytometry); settings: 2xIC50, 24-h treatment; control 34.35%
Method: as §1, §2

[4] = test system: U-251; test: Cell cycle assay (flow cytometry); settings: 2xIC50, 24-h treatment; control 20.44%
Method: as §1, §2

IC50 [1]: 1160 ± 190 nM
IC50 ([1]; Homo sapiens, HCT-116, 72 h): ~1000 nM
SMILES: O=[N+]([O-])c1ccc(/C=C/c2ccnc3ccccc23)o1 [Compound 13]
population of cells in G2/M phase [2]: 49.78%
population of cells in G2/M phase [3]: 44.95%
percentage of cells in S phase [4]: 35.59%

From article PMC11574108, “4-Furanylvinylquinoline derivative as a new scaffold for the design of oxidative stress initiator and glucose transporter inhibitor drugs” (Scientific Reports, 2024)
